{
  "source": "paper PMC6245549",
  "about": "(Journal of medicinal chemistry, 2018)",
  "key": {"BRD4 D1": {"biological_target": "BRD4 D1 (Homo sapiens, UniProt O60885)", "experiment": "ALPHAScreen, BRD4 D1"}, "[1]": {"system": "MSK1 phosphorylation at T581", "experiment": "Phosphorylation state of MSK1", "assay_type": "cell-based"}, "BET D2s": {"system": "BET D2s", "experiment": "DiscoverX bromodomain-selectivity profiling, BET D2s", "assay_type": "binding, human", "conditions": "10 μM"}, "p38β": {"biological_target": "p38β (Homo sapiens, UniProt Q15759)", "sequence (Q15759 whole entry)": "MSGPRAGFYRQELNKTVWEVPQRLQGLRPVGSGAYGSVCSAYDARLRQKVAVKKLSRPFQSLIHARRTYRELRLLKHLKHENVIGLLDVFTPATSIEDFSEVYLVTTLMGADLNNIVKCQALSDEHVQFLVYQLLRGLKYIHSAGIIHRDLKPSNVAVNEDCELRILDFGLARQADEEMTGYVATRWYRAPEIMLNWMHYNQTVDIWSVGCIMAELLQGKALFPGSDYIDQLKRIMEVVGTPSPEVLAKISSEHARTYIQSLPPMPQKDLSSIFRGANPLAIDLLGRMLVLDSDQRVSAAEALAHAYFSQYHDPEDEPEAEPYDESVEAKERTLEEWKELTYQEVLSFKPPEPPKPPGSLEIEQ", "experiment": "DiscoverX kinase-selectivity profiling, p38β", "assay_type": "binding", "conditions": "1 μM, DiscoverX platform"}, "A549 cells": {"system": "A549 cells", "experiment": "Cytotoxicity toward A549 cells", "assay_type": "cell-based"}, "p38α [2]": {"biological_target": "T1, p38α (Homo sapiens, UniProt Q16539)", "T1 sequence (Q16539 whole entry)": "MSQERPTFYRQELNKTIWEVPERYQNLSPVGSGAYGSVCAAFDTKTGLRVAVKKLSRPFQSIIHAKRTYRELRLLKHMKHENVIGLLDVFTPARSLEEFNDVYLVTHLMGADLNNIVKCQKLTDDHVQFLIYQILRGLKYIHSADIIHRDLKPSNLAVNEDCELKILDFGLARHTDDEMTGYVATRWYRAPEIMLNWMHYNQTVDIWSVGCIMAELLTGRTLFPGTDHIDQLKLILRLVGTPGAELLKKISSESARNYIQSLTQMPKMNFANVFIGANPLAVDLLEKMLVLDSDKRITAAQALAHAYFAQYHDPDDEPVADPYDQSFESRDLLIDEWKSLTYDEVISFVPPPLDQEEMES", "experiment": "DiscoverX kinase-selectivity profiling, p38α", "assay_type": "binding", "conditions": "1 μM, DiscoverX platform"}, "c-Myc": {"system": "c-Myc", "experiment": "Western blot of c-Myc levels in MM.1S cells", "assay_type": "cell-based", "conditions": "6 h, concentrations approaching BRD4(1) Kd"}, "BRDT(1)": {"biological_target": "BRDT(1) (Homo sapiens, UniProt Q58F21)", "experiment": "Protein-observed fluorine NMR", "assay_type": "binding", "conditions": "50 μM 19F-labeled protein, W50"}, "BPTF": {"biological_target": "BPTF (Homo sapiens, UniProt Q12830)", "experiment": "Protein-observed fluorine NMR", "assay_type": "binding"}, "[3]": {"system": "yeast GCN5-like malarial protein (pfGCN5)", "experiment": "Protein-observed fluorine NMR", "assay_type": "binding"}, "p38α [4]": {"biological_target": "T1, p38α", "experiment": "Cellular thermal-shift assay", "assay_type": "cell-based", "conditions": "A549 cells, isothermal denaturation, dose-dependent"}, "kinases": {"system": "kinases", "conditions": "100 nM; no reference given; cited from earlier work"}, "A549-NF-κB-luc cells": {"system": "A549-NF-κB-luc cells", "experiment": "NF-κB luciferase reporter assay"}, "BRD4(1) [5]": {"biological_target": "T2, BRD4(1) (Homo sapiens, UniProt O60885)", "experiment": "Isothermal-titration calorimetry", "assay_type": "binding"}, "BRD4(2)": {"biological_target": "BRD4(2) (Homo sapiens, UniProt O60885)", "experiment": "Fluorescence anisotropy, BRD4"}, "BRD4(1) [6]": {"biological_target": "T2, BRD4(1)", "experiment": "Fluorescence anisotropy, BRD4"}, "BRD4(1) [7]": {"biological_target": "T2, BRD4(1)", "experiment": "Protein-observed fluorine NMR", "assay_type": "binding"}, "IL-8 [8]": {"system": "IL-8", "experiment": "IL-8 ELISA", "assay_type": "cell-based", "conditions": "Homo sapiens, read-out: Inhibition of IL-8 cytokine production"}, "IL-8 [9]": {"system": "IL-8", "conditions": "20 μM; cited from earlier work"}},
  "data": [
    {"smiles": "Cc1cc(C)cc(Nc2nccc(-c3c(C)nnn3C3CCNCC3)n2)c1", "note": "[IX, N-(3,5-Dimethylphenyl)-4-(4-methyl-1-(piperidin-4-yl)-1H-1,2,3-triazol-5-yl)pyrimidin-2-amine]", "values": [
      {"measurement": "Enhancement of binding to BRD4(1) relative to VII", "setting": "BRD4 D1", "value": 20, "unit": "fold"}
    ]},
    {"smiles": "Cc1cc(C)cc(Nc2nccc(-c3c(-c4ccc(F)cc4)ncn3C3CCNCC3)n2)c1", "note": "[Compound V, N-(3,5-Dimethylphenyl)-4-(4-(4-fluorophenyl)-1-(piperidin-4-yl)-1H-imidazol-5-yl)pyrimidin-2-amine]", "values": [
      {"measurement": "MSK1 phosphorylation at T581, in words", "setting": "[1]", "value": "decrease in levels of MSK1 phosphorylation"},
      {"measurement": "Inhibition of BET D2s, DiscoverX", "setting": "BET D2s", "value": "7−27%"},
      {"measurement": "Inhibitory activity against p38β, in words", "setting": "p38β", "value": "high inhibitory activity"},
      {"measurement": "Concentration up to which cytotoxicity toward A549 cells is minimal", "setting": "A549 cells", "value": "≤ 10", "unit": "µM"},
      {"measurement": "Inhibitory activity against p38α, in words", "setting": "p38α [2]", "value": "high inhibitory activity"},
      {"measurement": "Expression of c-Myc oncoprotein, in words", "setting": "c-Myc", "value": "inhibited expression"},
      {"measurement": "Small molecule needed to reach fully bound state of WPF-shelf resonance, BRDT(1)", "setting": "BRDT(1)", "value": "approximately 1 equiv."},
      {"measurement": "Binding to BPTF by PrOF NMR, in words", "setting": "BPTF", "value": "did not detect binding"},
      {"measurement": "Binding to GCN5-like malarial protein by PrOF NMR, in words", "setting": "[3]", "value": "did not detect binding"},
      {"measurement": "Concentration above which p38α is stabilized (CETSA)", "setting": "p38α [4]", "value": "> 1", "unit": "nM"}
    ]},
    {"smiles": "C[S+]([O-])c1ccc(-c2nc(-c3ccc(F)cc3)c(-c3ccncc3)[nH]2)cc1", "note": "(centres unmarked) [SB203580]", "values": [
      {"measurement": "Kinase selectivity score", "setting": "kinases", "value": 0.024}
    ]},
    {"smiles": "NC(=O)c1ccc(N(C(N)=O)c2c(F)cccc2F)nc1-c1ccc(F)cc1F", "note": "[VX-702]", "values": [
      {"measurement": "Inhibition in NF-κB reporter assay, in words", "setting": "A549-NF-κB-luc cells", "value": "limited inhibitory effects"}
    ]},
    {"smiles": "Cc1ccc(Nc2nccc(-c3c(-c4ccc(F)cc4)ncn3C3CCNCC3)n2)cc1C", "note": "[Compound IV, N-(3,4-Dimethylphenyl)-4-(4-(4-fluorophenyl)-1-(piperidin-4-yl)-1H-imidazol-5-yl)pyrimidin-2-amine]", "values": [
      {"measurement": "MSK1 phosphorylation at T581, in words", "setting": "[1]", "value": "decrease in levels of MSK1 phosphorylation"},
      {"measurement": "Entropy of binding in ITC", "setting": "BRD4(1) [5]", "value": 5.0, "unit": "cal/mol/°C"},
      {"measurement": "Concentration up to which cytotoxicity toward A549 cells is minimal", "setting": "A549 cells", "value": "≤ 25", "unit": "µM"},
      {"measurement": "Expression of c-Myc oncoprotein, in words", "setting": "c-Myc", "value": "inhibited expression"}
    ]},
    {"smiles": "Fc1ccc(-c2ncn(C3CCNCC3)c2-c2ccnc(Oc3cc(F)cc(F)c3)n2)cc1", "note": "[Compound VI, 2-(3,5-Difluorophenoxy)-4-(4-(4-fluorophenyl)-1-(piperidin-4-yl)-1H-imidazol-5-yl)pyrimidine]", "values": [
      {"measurement": "Binding to BRD4(2) / displacement of BI-BODIPY, in words", "setting": "BRD4(2)", "value": "only bound weakly"},
      {"measurement": "Binding to BRD4(1), in words", "setting": "BRD4(1) [6]", "value": "only bound weakly"}
    ]},
    {"smiles": "Cc1cc(C)cc(Nc2nccc(-c3c(-c4ccc(F)cc4)nnn3C3CCNCC3)n2)c1", "note": "[VII, N-(3,5-Dimethylphenyl)-4-(4-(4-fluorophenyl)-1-(piperidin-4-yl)-1H-1,2,3-triazol-5-yl)pyrimidin-2-amine]", "values": [
      {"measurement": "Binding to BRD4(1) by PrOF NMR, in words", "setting": "BRD4(1) [7]", "value": "bound BRD4(1) in a manner similar to that of compound V"}
    ]},
    {"smiles": "Cc1sc2c(c1C)C(c1ccc(Cl)cc1)=N[C@@H](CC(=O)OC(C)(C)C)c1nnc(C)n1-2", "note": "[(+)-JQ1, reference compound]", "values": [
      {"measurement": "MSK1 phosphorylation at T581, in words", "setting": "[1]", "value": "not observed"},
      {"measurement": "inhibition at 1 µM", "setting": "IL-8 [8]", "value": 63, "unit": "%"}
    ]},
    {"smiles": "C=C1C(=O)O[C@H]2[C@H]1CC/C(C)=C/CC[C@@]1(C)O[C@@H]21", "note": "[parthenolide]", "values": [
      {"measurement": "IL-8 production, in words", "setting": "IL-8 [9]", "value": "decreased IL-8 production to baseline"}
    ]}
  ]
}
